Results on 9 compounds are retold here after PMC4050313, “Panaxadiol and Panaxatriol Derivatives as Anti-Hepatitis B Virus Inhibitors” (Natural Products and Bioprospecting, 2014).

The nature of data set [1]: Cytotoxicity, modified MTT method. Conditions: human; 50 % cytotoxicity concentration in HepG 2.2.15 cells; means of two independent experiments. It counts as cell-based. How it is done: (§1) Based on our previous description, inhibitory activity on HBV (HBsAg, HBeAg and HBV DNA) was evaluated. […] Cytotoxicity was assayed with a modified 3-(4,5-dimethylthiazole-2-yl)-2,5-diphenyltetrazolium bromide (MTT) method (Gibco Invitrogen, Carlsbad, CA, USA). The anti-HBV antigen secretion activities were determined by the enzyme linked immunosorbent assay (ELISA; Autobio Diagnostics Co., Ltd, China). A real-time PCR assay was applied to detect the inhibitory activity on HBV DNA replication.

The next data set relates to HBeAg secretion. Briefly: microbe, parasite or virus in culture. To be noted: Hepatitis B virus, HepG2.2.15, read-out: HBeAg IC50. It counts as cell-based, Hepatitis B virus. How it is done: as §1
For another data set, the system named is HBsAg secretion. Briefly: microbe, parasite or virus in culture. Type of data set: cell-based, Hepatitis B virus. To be noted: Hepatitis B virus, HepG2.2.15, read-out: HBsAg IC50. How it is done:
as §1

The next data set concerns HBV DNA replication. As to the kind of experiment: Inhibition of HBV DNA replication, real-time PCR, HepG 2.2.15 cells. Type of data set: cell-based, Hepatitis B virus. Conditions: Hepatitis B virus, HepG2.2.15; HepG 2.2.15 cells; means of two independent experiments. How it is done:
as §1
Background: Quantitative PCR measures a nucleic acid by following its amplification.

The test system of data set [2] is liver injury induced by D-galactosamine and lipopolysaccharide. Set-up: method as in PMID 12880307. To be noted: liver injury induced by D-galactosamine and lipopolysaccharide in mice; cited from earlier work.
Data set [3] has as its system herpes simplex virus type I. Further details: method as in doi:10.3109/13880209509088139. Conditions: cited from earlier work.

One may read the CC50 as the concentration that lowers cell viability or growth by half. Low values mean harm at low concentration, high ones better tolerance by the cells. The term IC50 denotes the concentration at which inhibition is half-maximal. For the compound `CC1(C)CCC[C@](C)([C@H]2CC[C@]3(C)[C@@H]2[C@H](O)C[C@@H]2[C@@]4(C)CC[C@H](O)C(C)(C)[C@@H]4CC[C@]23C)O1` [PD, Panaxadiol], half-maximal cytotoxicity in data set [1] (CC50) was put at 923 µM. For the same compound, the results for the IC50 in the data set with HBeAg secretion, with HBsAg secretion and in the data set with HBV DNA replication were over 2280 µM, over 2280 µM and 148 µM, respectively.
Consider `CC1(C)CCC[C@](C)([C@H]2CC[C@]3(C)[C@@H]2[C@H](O)C[C@@H]2[C@@]4(C)CC[C@H](O)C(C)(C)[C@@H]4[C@@H](O)C[C@]23C)O1` [PT, Panaxatriol], for which, in data set [1], the half-maximal cytotoxic concentration (CC50) is over 2420 µM. Also, the concentration for half-maximal inhibition (IC50) in the data set with HBeAg secretion is over 2420 µM; with HBsAg secretion it was over 2420 µM; in the data set on HBV DNA replication, 669 µM.
On to `CC(C)=CCC[C@](C)(O[C@@H]1O[C@H](CO[C@@H]2OC[C@@H](O)[C@H](O)[C@H]2O)[C@@H](O)[C@H](O)[C@H]1O)[C@H]1CC[C@]2(C)[C@@H]1[C@H](O)C[C@@H]1[C@@]3(C)CC[C@H](O[C@@H]4O[C@H](CO)[C@@H](O)[C@H](O)[C@H]4O[C@@H]4O[C@H](CO)[C@@H](O)[C@H](O)[C@H]4O)C(C)(C)[C@@H]3CC[C@]12C` [Rb3, ginsenoside Rb3], for which, in data set [2], the hepatoprotective activity entry was “showed hepatoprotective activity”.
For the compound `CC(C)=CCC[C@](C)(O[C@@H]1O[C@H](CO[C@@H]2O[C@@H](CO)[C@H](O)[C@H]2O)[C@@H](O)[C@H](O)[C@H]1O)[C@H]1CC[C@]2(C)[C@@H]1[C@H](O)C[C@@H]1[C@@]3(C)CC[C@H](O[C@@H]4O[C@H](CO)[C@@H](O)[C@H](O)[C@H]4O[C@@H]4O[C@H](CO)[C@@H](O)[C@H](O)[C@H]4O)C(C)(C)[C@@H]3CC[C@]12C` [Rc, ginsenoside Rc], the hepatoprotective activity entry in data set [2] is listed as “showed hepatoprotective activity”.
In the case of `CC(C)=CCC[C@](C)(O[C@@H]1O[C@H](CO)[C@@H](O)[C@H](O)[C@H]1O)[C@H]1CC[C@]2(C)[C@@H]1[C@H](O)C[C@@H]1[C@@]3(C)CC[C@H](O[C@@H]4O[C@H](CO)[C@@H](O)[C@H](O)[C@H]4O[C@@H]4O[C@H](CO)[C@@H](O)[C@H](O)[C@H]4O)C(C)(C)[C@@H]3CC[C@]12C` [Rd, ginsenoside Rd], the hepatoprotective activity result in data set [2] was “showed hepatoprotective activity”.
Take `C[C@H](Cn1cnc2c(N)ncnc21)OCP(=O)(O)O` [Tf, Tenofovir, reference compound]: the CC50 in data set [1] is over 1720 µM. The IC50 with HBeAg secretion was 1240 µM; with HBsAg secretion it was 1390 µM; with HBV DNA replication, 0.71 µM.
Consider `CC(C)=CCC[C@](C)(O[C@@H]1O[C@H](CO[C@@H]2O[C@H](CO)[C@@H](O)[C@H](O)[C@H]2O)[C@@H](O)[C@H](O)[C@H]1O)[C@H]1CC[C@]2(C)[C@@H]1[C@H](O)C[C@@H]1[C@@]3(C)CC[C@H](O[C@@H]4O[C@H](CO)[C@@H](O)[C@H](O)[C@H]4O)C(C)(C)[C@@H]3CC[C@]12C` [XVII, ginsenoside XVII], for which, in data set [2], the hepatoprotective activity result is on record as “showed hepatoprotective activity”.
Take `CC(C)=CCC[C@](C)(O)[C@H]1CC[C@]2(C)[C@@H]1[C@H](O)C[C@@H]1[C@@]3(C)CC[C@H](O[C@@H]4O[C@H](CO[C@@H]5OC[C@@H](O)[C@H](O)[C@H]5O)[C@@H](O)[C@H](O)[C@H]4O[C@@H]4O[C@H](CO)[C@@H](O)[C@H](O)[C@H]4O)C(C)(C)[C@@H]3CC[C@]12C` [chikusetsusaponin III]: the “ID50, reduced yield of herpes simplex virus type I” value in data set [3] is 29 µM.
Consider `CC(C)=CCC[C@](C)(O[C@@H]1O[C@H](CO)[C@@H](O)[C@H](O)[C@H]1O)[C@H]1CC[C@]2(C)[C@@H]1[C@H](O)C[C@@H]1[C@@]3(C)CC[C@H](O)C(C)(C)[C@@H]3[C@@H](O[C@@H]3O[C@H](CO)[C@@H](O)[C@H](O)[C@H]3O[C@@H]3OC[C@@H](O)[C@H](O)[C@H]3O)C[C@]12C` [notoginsenoside R1], for which the hepatoprotective activity result in data set [2] is recorded as “showed hepatoprotective activity”.
